Patent US20200172529A1, “Chemical Compound, Pharmaceutical Composition Thereof, and Use and Application Thereof” (Beijing Hanmi Pharm. Co., Ltd., priority 2017, published 2020)

Assays:
Type in all cases: biochemical
[1] = target: JAK1 kinase (Homo sapiens, UniProt P23458); assay: Inhibition assay of JAK1 kinase activity (ADP-Glo Kinase Assay)
Description: Inhibition assay of JAK1 kinase activity: the method in ADP-Glo™ Kinase Assay (Promega, V9102) was used to determine the inhibitory activity of the test compounds against JAK1 kinase.

[2] = target: T1, TYK2 kinase (Homo sapiens, UniProt P29597); assay: Inhibition assay of TYK2 kinase activity (ADP-Glo Kinase Assay)
T1 construct: purchased Life Technologies PR8440C
T1 sequence (P29597 whole entry): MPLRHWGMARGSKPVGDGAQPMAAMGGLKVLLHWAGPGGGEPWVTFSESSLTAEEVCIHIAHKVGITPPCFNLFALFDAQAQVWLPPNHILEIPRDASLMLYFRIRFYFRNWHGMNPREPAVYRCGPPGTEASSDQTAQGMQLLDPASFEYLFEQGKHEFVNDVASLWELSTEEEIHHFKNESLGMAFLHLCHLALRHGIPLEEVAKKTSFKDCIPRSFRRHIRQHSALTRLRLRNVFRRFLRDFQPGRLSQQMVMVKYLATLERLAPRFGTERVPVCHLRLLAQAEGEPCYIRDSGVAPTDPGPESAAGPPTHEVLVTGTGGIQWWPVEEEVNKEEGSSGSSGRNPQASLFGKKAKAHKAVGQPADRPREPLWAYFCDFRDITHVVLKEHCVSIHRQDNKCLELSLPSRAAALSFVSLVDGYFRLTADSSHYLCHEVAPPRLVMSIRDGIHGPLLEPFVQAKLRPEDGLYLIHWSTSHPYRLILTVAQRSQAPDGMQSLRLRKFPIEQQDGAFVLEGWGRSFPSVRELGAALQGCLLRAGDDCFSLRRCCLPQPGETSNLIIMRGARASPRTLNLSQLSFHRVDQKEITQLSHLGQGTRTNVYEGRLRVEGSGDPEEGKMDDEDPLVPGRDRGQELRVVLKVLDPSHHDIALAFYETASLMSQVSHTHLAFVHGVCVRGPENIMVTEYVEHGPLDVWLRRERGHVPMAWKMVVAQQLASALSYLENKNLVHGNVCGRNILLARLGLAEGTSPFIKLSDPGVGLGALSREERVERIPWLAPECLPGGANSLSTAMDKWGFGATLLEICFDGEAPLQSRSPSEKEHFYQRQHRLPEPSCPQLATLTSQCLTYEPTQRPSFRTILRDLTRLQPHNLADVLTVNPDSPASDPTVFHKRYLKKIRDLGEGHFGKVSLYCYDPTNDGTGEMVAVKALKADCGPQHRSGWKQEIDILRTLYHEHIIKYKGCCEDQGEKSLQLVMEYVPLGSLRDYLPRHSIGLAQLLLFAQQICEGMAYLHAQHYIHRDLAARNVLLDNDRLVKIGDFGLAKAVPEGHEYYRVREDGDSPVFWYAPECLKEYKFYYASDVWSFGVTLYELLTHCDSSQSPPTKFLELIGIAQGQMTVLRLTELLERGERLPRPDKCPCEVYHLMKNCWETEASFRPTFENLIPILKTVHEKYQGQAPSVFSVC
Outline: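 Enzyme at 0.8 ng/mL (2-fold final) in 40 mM Tris-HCl pH 7.5, 20 mM MgCl2, 0.1 mg/mL BSA, 1 mM DTT, preincubated 10 min with compound (6 points, 10-fold dilutions from 10 μM). ATP plus polyE4Y1 then added for 60 min at room temperature. ADP-Glo luminescence read and IC50 derived.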

[3] = target: JAK2 kinase (Homo sapiens, UniProt O60674); assay: Inhibition assay of JAK2 kinase activity (ADP-Glo Kinase Assay)
JAK2 kinase, sequence (O60674 whole entry): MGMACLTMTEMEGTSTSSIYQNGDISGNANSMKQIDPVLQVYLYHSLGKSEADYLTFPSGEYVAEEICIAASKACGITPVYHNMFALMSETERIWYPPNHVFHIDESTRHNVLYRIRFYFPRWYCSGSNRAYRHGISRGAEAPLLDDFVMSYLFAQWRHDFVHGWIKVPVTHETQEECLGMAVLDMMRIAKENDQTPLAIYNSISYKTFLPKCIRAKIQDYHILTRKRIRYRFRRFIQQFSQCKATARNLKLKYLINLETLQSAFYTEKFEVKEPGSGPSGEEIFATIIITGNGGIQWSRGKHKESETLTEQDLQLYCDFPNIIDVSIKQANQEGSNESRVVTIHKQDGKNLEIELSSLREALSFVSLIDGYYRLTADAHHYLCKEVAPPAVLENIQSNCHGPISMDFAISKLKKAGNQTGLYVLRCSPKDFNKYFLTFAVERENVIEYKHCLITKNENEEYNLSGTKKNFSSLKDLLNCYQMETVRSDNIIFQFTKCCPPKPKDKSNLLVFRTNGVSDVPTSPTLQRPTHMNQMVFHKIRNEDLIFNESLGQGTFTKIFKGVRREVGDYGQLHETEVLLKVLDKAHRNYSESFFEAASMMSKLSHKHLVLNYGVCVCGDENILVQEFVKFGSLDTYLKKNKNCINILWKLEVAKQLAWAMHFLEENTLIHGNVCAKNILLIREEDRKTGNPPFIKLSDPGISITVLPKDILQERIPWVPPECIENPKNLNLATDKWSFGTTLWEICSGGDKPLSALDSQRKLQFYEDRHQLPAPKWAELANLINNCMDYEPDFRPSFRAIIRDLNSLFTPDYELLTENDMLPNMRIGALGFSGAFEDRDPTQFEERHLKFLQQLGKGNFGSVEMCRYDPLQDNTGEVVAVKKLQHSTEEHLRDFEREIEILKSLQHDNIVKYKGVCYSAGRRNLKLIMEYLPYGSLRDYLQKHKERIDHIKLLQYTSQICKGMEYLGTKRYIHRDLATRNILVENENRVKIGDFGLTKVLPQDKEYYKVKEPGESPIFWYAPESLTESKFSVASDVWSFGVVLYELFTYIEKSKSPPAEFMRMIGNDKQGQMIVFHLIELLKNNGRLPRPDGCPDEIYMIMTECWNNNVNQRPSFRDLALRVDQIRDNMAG
Description: Inhibition assay of JAK2 kinase activity: the method in ADP-Glo™ Kinase Assay (Promega, V9102) was used to determine the inhibitory activity of the test compounds against JAK2 kinase.

[4] = target: T2, JAK3 kinase (Homo sapiens, UniProt P52333); assay: Inhibition assay of JAK3 kinase activity (ADP-Glo Kinase Assay)
T2 sequence (P52333 1-1124): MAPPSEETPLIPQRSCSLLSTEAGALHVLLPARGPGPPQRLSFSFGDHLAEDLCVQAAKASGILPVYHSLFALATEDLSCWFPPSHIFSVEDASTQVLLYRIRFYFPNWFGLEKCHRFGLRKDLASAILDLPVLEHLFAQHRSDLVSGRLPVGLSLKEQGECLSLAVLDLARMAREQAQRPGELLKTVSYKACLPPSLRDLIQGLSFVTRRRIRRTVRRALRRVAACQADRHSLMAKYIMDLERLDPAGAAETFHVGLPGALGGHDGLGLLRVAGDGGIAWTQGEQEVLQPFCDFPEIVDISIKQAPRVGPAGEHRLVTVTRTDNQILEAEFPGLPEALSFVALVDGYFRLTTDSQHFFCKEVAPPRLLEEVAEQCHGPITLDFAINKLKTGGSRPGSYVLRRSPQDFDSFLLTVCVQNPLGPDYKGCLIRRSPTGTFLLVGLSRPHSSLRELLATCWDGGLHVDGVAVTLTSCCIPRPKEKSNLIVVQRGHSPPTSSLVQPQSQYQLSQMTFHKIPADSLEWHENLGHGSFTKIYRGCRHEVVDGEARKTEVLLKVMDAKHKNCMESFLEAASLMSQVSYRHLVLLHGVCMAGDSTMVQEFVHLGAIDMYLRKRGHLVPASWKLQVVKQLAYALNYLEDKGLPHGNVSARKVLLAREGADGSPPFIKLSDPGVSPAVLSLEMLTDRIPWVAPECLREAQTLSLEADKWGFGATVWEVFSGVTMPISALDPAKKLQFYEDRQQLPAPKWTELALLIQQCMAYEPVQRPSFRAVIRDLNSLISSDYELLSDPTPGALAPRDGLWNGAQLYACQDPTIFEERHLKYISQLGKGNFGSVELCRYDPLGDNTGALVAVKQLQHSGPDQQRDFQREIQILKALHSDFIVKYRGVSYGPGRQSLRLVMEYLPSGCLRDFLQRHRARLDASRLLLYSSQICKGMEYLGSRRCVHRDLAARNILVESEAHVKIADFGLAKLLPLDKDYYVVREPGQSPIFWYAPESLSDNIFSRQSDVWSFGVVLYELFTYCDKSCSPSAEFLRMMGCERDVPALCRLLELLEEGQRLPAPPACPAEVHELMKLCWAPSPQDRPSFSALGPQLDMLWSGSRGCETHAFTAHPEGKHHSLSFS
Description: Inhibition assay of JAK3 kinase activity: the method in ADP-Glo™ Kinase Assay (Promega, V9102) was used to determine the inhibitory activity of the test compounds against JAK3 kinase.

[5] = target: SYK kinase (Homo sapiens, UniProt P43405); assay: Inhibition assay of SYK kinase activity (ADP-Glo Kinase Assay)
Description: Inhibition assay of SYK kinase activity: the method in ADP-Glo™ Kinase Assay (Promega, V9102) was used to determine the inhibitory activity of the test compounds against SYK kinase.

JAK1 kinase, sequence (P23458 whole entry): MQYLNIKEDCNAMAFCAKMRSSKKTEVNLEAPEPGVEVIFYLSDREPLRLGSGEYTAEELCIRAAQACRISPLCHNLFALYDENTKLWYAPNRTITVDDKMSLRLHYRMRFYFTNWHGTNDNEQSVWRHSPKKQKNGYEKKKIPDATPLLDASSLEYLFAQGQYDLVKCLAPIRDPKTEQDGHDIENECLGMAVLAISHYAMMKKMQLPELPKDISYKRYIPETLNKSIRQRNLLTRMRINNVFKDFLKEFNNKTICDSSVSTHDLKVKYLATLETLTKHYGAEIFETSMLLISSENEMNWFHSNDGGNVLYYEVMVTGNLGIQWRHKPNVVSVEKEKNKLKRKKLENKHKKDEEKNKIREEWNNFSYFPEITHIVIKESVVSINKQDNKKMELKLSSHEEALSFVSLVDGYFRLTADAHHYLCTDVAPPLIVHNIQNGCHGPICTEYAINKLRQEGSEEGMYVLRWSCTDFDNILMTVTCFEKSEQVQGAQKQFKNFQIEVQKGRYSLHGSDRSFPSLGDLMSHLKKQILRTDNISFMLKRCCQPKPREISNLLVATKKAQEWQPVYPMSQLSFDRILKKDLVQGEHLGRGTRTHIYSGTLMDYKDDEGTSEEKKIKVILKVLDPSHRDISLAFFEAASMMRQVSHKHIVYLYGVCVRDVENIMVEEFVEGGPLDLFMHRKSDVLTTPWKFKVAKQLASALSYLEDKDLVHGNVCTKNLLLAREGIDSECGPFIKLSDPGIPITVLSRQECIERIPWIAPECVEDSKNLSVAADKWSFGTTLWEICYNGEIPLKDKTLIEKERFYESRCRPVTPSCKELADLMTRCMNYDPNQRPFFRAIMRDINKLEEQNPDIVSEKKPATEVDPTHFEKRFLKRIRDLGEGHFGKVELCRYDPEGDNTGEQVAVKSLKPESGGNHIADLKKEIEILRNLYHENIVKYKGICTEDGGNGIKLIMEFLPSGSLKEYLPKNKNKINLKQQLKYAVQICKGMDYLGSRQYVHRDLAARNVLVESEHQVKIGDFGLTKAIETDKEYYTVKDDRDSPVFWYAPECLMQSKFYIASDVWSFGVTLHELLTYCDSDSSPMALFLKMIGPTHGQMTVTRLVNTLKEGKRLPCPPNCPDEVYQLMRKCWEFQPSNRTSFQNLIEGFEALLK

Row | SMILES | IC50 [1] [nM] | IC50 [2] [nM] | IC50 [3] [nM] | IC50 [4] [nM] | IC50 [5] [nM]
1 | NC(=O)c1cnc(Nc2ccc3c(c2)NC[C@H](OCCO)CO3)nc1NC1CC1 [Example 92, 4-(cyclopropylamino)-2-(((S)-2,3,4,5-tetrahydro-3-(2-hydroxyethoxy)benzo[b][1,4]oxazepin-7-yl)amino)pyrimidin-5-carboxamide] | < 10 | < 10 | < 10 | < 10 | 10 to 100
2 | COC1CNc2cc(Nc3ncc(C(N)=O)c(NC4CC4)n3)ccc2OC1 (centres unmarked) [Example 24, 4-(cyclopropylamino)-2-((3-methoxy-2,3,4,5-tetrahydro-benzo[b][1,4]oxazepin-7-yl)amino)pyrimidin-5-carboxamide] | 10 to 100 | < 10 | 10 to 100 | 10 to 100 | 10 to 100
3 | NC(=O)c1cnc(Nc2ccc3c(c2)NC[C@H](OCC(=O)O)CO3)nc1NC1CC1 [Example 94, 4-(cyclopropylamino)-2-(((S)-2,3,4,5-tetrahydro-3-(carboxymethoxy)benzo[b][1,4]oxazepin-7-yl)amino)pyrimidin-5-carboxamide] | < 10 | < 10 | < 10 | 10 to 100 | 10 to 100
4 | C#CCCCNc1nc(Nc2ccc3c(c2)NC[C@H](O)CO3)ncc1C(N)=O [Example 72, 4-(pent-4-yn-1-ylamino)-2-(((S)-2,3,4,5-tetrahydro-3-hydroxybenzo[b][1,4]oxazepin-7-yl)amino)pyrimidin-5-carboxamide] | < 10 | < 10 | < 10 | < 10 | 10 to 100
5 | CCOCCO[C@H]1CNc2cc(Nc3ncc(C(N)=O)c(NC4CC4)n3)ccc2OC1 [Example 95, 4-(cyclopropylamino)-2-(((S)-2,3,4,5-tetrahydro-3-(2-ethoxyethoxy)benzo[b][1,4]oxazepin-7-yl)amino)pyrimidin-5-carboxamide] | < 10 | < 10 | 10 to 100 | < 10 | 10 to 100

The remaining lines, values ahead:

Row | IC50 [1] [nM] | IC50 [2] [nM] | IC50 [3] [nM] | IC50 [4] [nM] | IC50 [5] [nM] | SMILES
6 | < 10 | < 10 | < 10 | 10 to 100 | 10 to 100 | CC1(Nc2nc(Nc3ccc4c(c3)NC[C@H](O)CO4)ncc2C(N)=O)CC1 [Example 68, 4-((1-methylcyclopropyl)amino)-2-(((S)-2,3,4,5-tetrahydro-3-hydroxybenzo[b][1,4]oxazepin-7-yl)amino)pyrimidin-5-carboxamide]
7 | < 10 | < 10 | < 10 | < 10 | 10 to 100 | NC(=O)c1cnc(Nc2ccc3c(c2)NC[C@H](O)CO3)nc1NCC1CC1 [Example 44, 4-((cyclopropylmethyl)amino)-2-(((S)-2,3,4,5-tetrahydro-3-hydroxybenzo[b][1,4]oxazepin-7-yl)amino)pyrimidin-5-carboxamide]
8 | < 10 | < 10 | 10 to 100 | 10 to 100 | 10 to 100 | COCCOCCO[C@H]1CNc2cc(Nc3ncc(C(N)=O)c(NC4CC4)n3)ccc2OC1 [Example 89, 4-(cyclopropylamino)-2-(((S)-2,3,4,5-tetrahydro-3-(2-(2-methoxyethoxy)ethoxy)benzo[b][1,4]oxazepin-7-yl)amino)pyrimidin-5-carboxamide]
9 | < 10 | < 10 | < 10 | 10 to 100 | 10 to 100 | [2H]C([2H])([2H])O[C@H]1CNc2cc(Nc3ncc(C(N)=O)c(NC4CC4)n3)ccc2OC1 [Example 87, 4-(cyclopropylamino)-2-(((S)-2,3,4,5-tetrahydro-3-(trideuteromethoxy)benzo[b][1,4]oxazepin-7-yl)amino)pyrimidin-5-carboxamide]
10 | < 10 | < 10 | 10 to 100 | 10 to 100 | 10 to 100 | CCO[C@H]1CNc2cc(Nc3ncc(C(N)=O)c(NC4CC4)n3)ccc2OC1 [Example 79, 4-(cyclopropylamino)-2-(((S)-2,3,4,5-tetrahydro-3-ethoxybenzo[b][1,4]oxazepin-7-yl)amino)pyrimidin-5-carboxamide]
11 | < 10 | < 10 | 10 to 100 | 10 to 100 | 10 to 100 | NC(=O)c1cnc(Nc2ccc3c(c2)NC[C@H](O)CO3)nc1NC1CC1F (stereo partly drawn) [Example 57, 4-((2-fluorocyclopropyl)amino)-2-(((S)-2,3,4,5-tetrahydro-3-hydroxybenzo[b][1,4]oxazepin-7-yl)amino)pyrimidin-5-carboxamide]
12 | < 10 | < 10 | 10 to 100 | 10 to 100 | 10 to 100 | NC(=O)c1cnc(Nc2ccc3c(c2)NC[C@H](OCC2CCCO2)CO3)nc1NC1CC1 (stereo partly drawn) [Example 97, 4-(cyclopropylamino)-2-(((S)-2,3,4,5-tetrahydro-3-((tetrahydrofuran-2-yl)methoxy)benzo[b][1,4]oxazepin-7-yl)amino)pyrimidin-5-carboxamide]
13 | < 10 | < 10 | 10 to 100 | 10 to 100 | 10 to 100 | COCCO[C@H]1CNc2cc(Nc3ncc(C(N)=O)c(NC4CC4)n3)ccc2OC1 [Example 78, 4-(cyclopropylamino)-2-(((S)-2,3,4,5-tetrahydro-3-methoxyethoxybenzo[b][1,4]oxazepin-7-yl)amino)pyrimidin-5-carboxamide]
